# Results from patent US11648287B2, “Composition for the treatment of intracellular bacterial infection” (priority 2017, dated 2023).
# Columns and labels:
# [1] = test system: S. epidermidis strain O-47; assay: MIC and MBC of gentamicin for S. epidermidis in RPMI; format: cell-based; conditions: S. epidermidis O-47; RPMI medium supplemented with 5% fetal calf serum
# From the text: An “antibacterial agent” is an entity (e.g. a molecule) which has the ability to kill, damage or prevent the replication of selected bacteria under in vitro conditions, e.g. when in direct contact under culture conditions. The bacteria are preferably as described herein. (As referred to herein bacteria are referred to in both the singular and plural. In particular they are referred to in the singular when defining the type of bacteria to be targeted (i.e. the type, e.g. species, applicable to each bacterium) and in the plural when referring to the treatment to which they may be subjected (i.e. treatment of multiple microorganisms).) In particular, the antibacterial activity is assessed by determining the MIC or MBC value against one or more bacteria, e.g. against a Staphylococcus bacteria. Antibacterial activity may be determined by reference to the MIC value, minimum inhibition concentration (MIC), which is defined as the minimum concentration of an antimicrobial agent that inhibits visible growth of micro-organisms in specified liquid media after overnight incubation. Alternatively antibacterial activity may be determined by the minimum bactericidal concentration (MBC) which is the minimum concentration that kills 99.9% of the bacteria during this incubation period. […]
# S aureus ATCC 49230 = assay: Treatment of S. aureus-infected zebrafish embryos with gentamicin alone or combined with TPCS2a; format: in vivo; conditions: 0.4, 0.1 or 0.05 ng gentamicin, without or with 2.5*10^−3 ng TPCS2a; illumination 10 minutes
# Description: (§1) Injection into the blood circulation of zebrafish embryos via either the blood island or the duct of Cuvier (Benard et al., 2012, Journal of visualized experiments: JoVE, 61) was performed following the injection procedure described earlier (Zhang et al., 2017, supra). The volume of liquid per injection was adjusted to 1 nl for all injections in the present study.
# Wild type zebrafish embryos were intravenously injected with a suitable dose of S aureus ATCC 49230 via the blood island at 30 hpf, and randomly divided into groups for different treatments. At 32 hpf 1 nl of PBS solution containing gentamicin alone (0.05, 0.1 or 0.4 μg/ml) or combined with 0.25 μg/ml TPCS2a (to provide 2.5×10^−3 ng) was intravenously injected. Control embryos received PBS injections. The embryos were protected from light using aluminium foil apart from illumination of 10 minutes, at 34 hpf, and separately maintained in E3 medium, which was refreshed daily. Survival was monitored until 6 dpi.
# Raw 264.7 cells [2] = assay: MTT metabolic activity of Raw 264.7 cells (gentamicin cytotoxicity); format: cell-based, mouse; conditions: after incubation of 24 hours
# Description: (§2) Raw 264.7 cells were seeded in a 96-well plate (polystyrene Nunclon™ clear TC plate, flat bottom, Greiner, The Netherlands) at a concentration of 1×10^5 cells/well and incubated overnight in RPMI at 37° C. in a humidified atmosphere containing 5% CO2 (unless specified otherwise). The cells were subsequently incubated overnight in 200 μl of RPMI containing gentamicin (15.6 to 1000 μg/ml), or incubated for 2 hours in RPMI containing photosensitizer TPPS2a (0.1 to 0.4 μg/ml) (PCI Biotech AS, Norway) which was replaced with refresh RPMI in order to remove unbound TPPS2a before incubation of another 2 hours. Raw 264.7 cells incubated in RPMI all the time were used as controls. The cells were protected from light using aluminium foil apart from illumination of 15 minutes using LumiSource (PCI Biotech AS, Norway). After illumination, cells were incubated in refresh RPMI for 24 hours. The effect of gentamicin and of TPPS2a on the metabolic activity of Raw 264.7 cells was tested using MTT at 24 hours after incubation or by WST-1 assay directly and at 24 hours after illumination, respectively, according to the manufacturer's instruction (Cell MTT or WST-1 assay kit, Sigma-Aldrich, The Netherlands). […] The influx of propidium iodide was measured to quantify the loss of cell viability directly or at 24 hours after illumination.
# zebrafish embryos [3] = assay: Toxicity test of gentamicin alone or combined with TPCS2a in zebrafish embryos; format: in vivo; conditions: for toxicity to zebrafish embryos (survival): graded doses injected per embryo; for maximal non-toxic concentrations: injection at 32 hpf, illumination 10 minutes, survival until 6 dpi
# Description: as §1
# Toxicity test of gentamicin alone or combined with TPCS2a in zebrafish embryos Gentamicin or TPCS2a solution (both in PBS) or mixtures were injected into WT zebrafish embryos at 32 hours post fertilization (hpf). PBS was injected into control embryos. The embryos were protected from light using aluminium foil apart from illumination for 10 minutes using LumiSource, at 34 hpf. Survival of embryos (heartbeat, movement) was monitored daily until 6 dpi.
# [4] = test system: intracellular S. epidermidis in Raw 264.7 cells; assay: Intracellular antimicrobial activity assay; format: cell-based
# Description: After culture S. epidermidis bacteria were pelleted, re-suspended in 1.5 ml of PBS mixed with 0.5 ml of human serum (H1 serum, Cat […], Bio Whittaker, The Netherlands) and incubated for 20 minutes for opsonization. The inoculum was adjusted to 1.8×10^8 CFU/ml with RPMI. Medium of cells was replaced by 40 μl of the bacterial inoculum (bacteria to cell ratio of 40:1) and phagocytosis was allowed to proceed for 45 minutes. […] Raw 264.7 cells were detached by incubation in 100 μl of RPMI containing 0.5 mM EDTA. Detached cells were transferred to a vial and lysed with 40 μl of 1% saponine by incubation in a waterbath sonicator for 5 minutes (Transsonic 460, Elma Schmldbaur GmbH, Germany). The sonicate was centrifuged, and the pelleted bacteria were washed repeatedly and re-suspended in PBS before quantitative culture of serial 10-fold dilutions. Intracellular surviving S. epidermidis in Raw 264.7 cells were expressed as numbers of CFU per well. […] After illumination, cells were incubated overnight, lysed before quantitative culture of surviving bacteria.
# Raw 264.7 cells [5] = assay: Propidium iodide influx, loss of viability of Raw 264.7 cells; format: cell-based, mouse; conditions: TPPS2a 0.25 μg/ml + S. epidermidis (40:1); illuminated for 5 minutes
# Description: as §2, with “The cells were protected from light using aluminium foil apart from illumination of 15 minutes using LumiSource (PCI Biotech AS, Norway).” left out
# Staphylococcus aureus = conditions: vancomycin alone 0.4 ng; 4300 CFU/embryo
# Description: To investigate whether PCI enhanced the antimicrobial efficacy of vancomycin against Staphylococcus aureus infection, S. aureus-infected zebrafish embryos were treated with vancomycin alone (0.4 ng) or combined with TPCS2a (2.5*10^−3 ng). PBS mock treatment was used as control. After injections, zebrafish embryos were maintained group-wise in petri-dishes containing E3 medium. The petri-dishes were placed on the Lumisource illumination device and embryos were illuminated for 10 minutes. Initial group sizes were 29 or 30 embryos. The difference between survival of the vancomycin alone group and the vancomycin-TPCS2a/illumination group was analyzed using Log-rank test, *p≤0.033.
# zebrafish embryos [6] = assay: Toxicity of vancomycin alone or combined with TPCS2a and illumination for non-infected zebrafish embryos; format: in vivo; conditions: vancomycin alone, 0.4 to 6.4 ng per non-infected embryo
# Description: The toxicity of vancomycin (Vanco) alone or combined with TPCS2a and illumination (T) for non-infected zebrafish embryos was examined. Doses of vancomycin (0.4, 1.6 or 6.4 ng per 1 nl of PBS), or combined with 2.5*10^−3 ng TPCS2a per 1 nl of PBS, were injected per embryo. […] The initial group sizes were 27 to 29 embryos.
compound,measurement,setting,value
gentamicin,minimal bactericidal concentration,[1],0.33 µg/mL
same,minimal inhibitory concentration,[1],0.04 µg/mL
same,survival of S. aureus-infected embryos compared to PBS mock treatment,S aureus ATCC 49230,significantly improved the survival
same,extracellular concentrations that did not reduce the metabolic activity of Raw 264.7 cells,Raw 264.7 cells [2],up to 250 μg/ml
same,toxicity to zebrafish embryos (survival),zebrafish embryos [3],dose-dependent toxicity
same,maximal non-toxic concentrations,zebrafish embryos [3],2 ng/embryo
same,killing of intracellular S. epidermidis,"[4]; gentamicin only 1, 10 or 30 μg/ml, regardless of time of illumination",did not kill intracellular S. epidermidis
same,effect of PCI on the efficacy of gentamicin,"[4]; lowest dose of gentamicin, with PCI, in vitro",no effect of PCI
"O=S(=O)(O)c1ccc(-c2c3nc(c(-c4ccccc4)c4ccc([nH]4)c(-c4ccccc4)c4nc(c(-c5ccc(S(=O)(=O)O)cc5)c5ccc2[nH]5)C=C4)C=C3)cc1 [TPPS2a, tetraphenyl porphyrin disulphonate]",reduction of cell viability (influx of propidium iodide),Raw 264.7 cells [5],not statistically different from the control group
same,intracellular survival of S. epidermidis vs non-treated illuminated group,"[4]; TPPS2a only 0.25 μg/ml, with illumination",did not affect intracellular survival of S. epidermidis
tetraphenyl chlorin disulphonate [TPCS2a],toxicity to zebrafish embryos (survival),zebrafish embryos [3],dose-dependent toxicity
same,maximal non-toxic concentrations,zebrafish embryos [3],2.5*10^−3 ng/embryo
CN[C@H](CC(C)C)C(=O)N[C@H]1C(=O)N[C@@H](CC(N)=O)C(=O)N[C@H]2C(=O)N[C@H]3C(=O)N[C@H](C(=O)N[C@H](C(=O)O)c4cc(O)cc(O)c4-c4cc3ccc4O)[C@H](O)c3ccc(c(Cl)c3)Oc3cc2cc(c3O[C@@H]2O[C@H](CO)[C@@H](O)[C@H](O)[C@H]2O[C@H]2C[C@](C)(N)[C@H](O)[C@H](C)O2)Oc2ccc(cc2Cl)[C@H]1O [vancomycin],survival of S. aureus-infected embryos,Staphylococcus aureus,had no effect on the survival of the infected embryos
same,toxicity to zebrafish embryos,zebrafish embryos [6],dose-dependent toxicity
